Data taken from a melting point compilation (Tetko et al.; mined from patent text by program, amines drawn as free bases though some values may be those of a salt).

SMILES | melting point
CCN(CC)CCC1CCN(CCNC(=O)N2c3ccccc3C(=O)Nc3cccnc32)CC1 | 170 to 172 °C
Oc1ccc2nc(-c3cccc4c(O)cccc34)oc2c1 | 240 to 242 °C
Cc1cc(I)cc(C=O)c1N | 134 °C
O=C(Nc1nc2ccc(Sc3nnc4ccc(-c5cnn(CCOC6CCCCO6)c5)cn34)cc2s1)C1CC1 (stereo not drawn) | 110 °C
CC(=O)Oc1ccc2c(c1)C(C)c1cc(OC(C)=O)ccc1-2 | 139 to 140 °C
COc1ccc2[nH]cc(/C(C#N)=C/c3ccn(C)n3)c2c1 | 178 °C
COc1ccc2c(Nc3ccc4[nH]ccc4c3)c(C#N)cnc2c1 | > 250 °C
COc1ncnc2c1C(c1cccc([N+](=O)[O-])c1)C(C(=O)OC(C)C)=C(C)N2 (stereo not drawn) | 212 to 213 °C
Cn1c(COc2ccc(CC3SC(=O)NC3=O)cc2)nc2ccc(Oc3cccc(NC(=O)Nc4ccccc4C(F)(F)F)c3)cc21 (stereo not drawn) | 161 to 164 °C
FC(F)(F)Sc1c(Cl)c(Cl)c(CBr)c(Cl)c1Cl | 117 to 118 °C
CCCCCc1ccc(CC(=O)c2ccc(OC)cc2)cc1 | 62 °C
Cc1ccc(N)c(C(=O)CS(C)=O)c1 (stereo not drawn) | 145 to 147 °C
CCOC(=O)CCc1ccc2c(CCC(=O)OCC)c(O)ccc2n1 | 74 to 76 °C
COC(=O)c1nc(Cl)sc1-c1cccc(F)c1 | 99 to 100 °C
CC(=O)Nc1cccc(-c2nc3ncccc3o2)c1 | 202 °C
COC(=O)c1c(C#N)ccc(NC(=NC#N)Nc2ccccc2Br)c1O | 210 to 211 °C
O=C(O)Cc1ccc2ccn(C(=O)c3ccccc3)c2c1 | 113 to 115 °C
CCCCCCCCC(SCCCCCC)C(=O)Nc1c(F)ccc2ncccc12 (stereo not drawn) | 74 to 75 °C
CC(C)(C)c1cc(NC(=O)C=Cc2ccccc2)cc(C(C)(C)C)c1O | 211 to 214 °C
CCOC(=O)N1CCN(C(=O)OC2c3ccccc3C(=O)N2c2ccc(Cl)cn2)CC1 (stereo not drawn) | 160 °C
Cn1ncnc1-n1cc(C(=O)O)c(=O)c2cc(F)c(Cl)nc21 | 238 to 242 °C
CCCNC(=O)NS(=O)(=O)c1ccccc1Br | 218 to 219 °C
CC(=O)Nc1cccc(NC(=O)C=C2CC(C(=O)O)Nc3cc(Cl)cc(Cl)c32)c1 (racemic) | 190 to 193 °C
COC(=O)c1ccccc1OCC(O)CNCCNC(=O)Cc1ccccc1 (stereo not drawn) | 114 to 115 °C
NS(=O)(=O)c1ccc(-c2cccc(-c3nc(-c4ccc(Cl)c(Cl)c4)cc(C(F)(F)F)n3)c2)s1 | 203 °C

SMILES | melting point
Cc1nc(Nc2ccc(F)cc2)nc(Cl)c1C | 114 °C
COCOc1ccc(Cl)cc1-c1cc(-c2cccc([N+](=O)[O-])c2)c(C#N)c(N)n1 | 192 to 193 °C
CCCc1nc(SC2CCC(=CC(=O)O)CC2)c(C(=O)O)n1Cc1cc2c(cc1Cl)OCO2 (stereo not drawn) | 168 °C
O=C1Nc2ccccc2S(=O)c2ccccc21 (stereo not drawn) | 308 to 310 °C
O=C(Nc1ccccc1)N(Cc1ccc(F)cc1)C1CCCC1 | 120 to 121 °C
CCOC(=O)CC(=O)c1ccc(C#N)cc1 | 64 °C
CCOC(=O)COc1cc(OC)cc2c1c1c(n2Cc2ccccc2)CCCC1C(N)=O (stereo not drawn) | 167 to 169 °C
CCCc1cccn1NS(=O)(=O)C1CCCC=C1C(=O)OCC (stereo not drawn) | 66 to 68 °C
Cc1ccc2cccc(OCC(=O)c3ccc(Cl)cc3)c2n1 | 112 to 113 °C
CCOc1cc(OCC)c2ccccc2c1O | 83 to 84 °C
CC(C)N[C@@H]1CCc2c(ccc(OCc3ccccc3)c2CO)[C@H]1O (relative stereo) | 138 to 139 °C
Cc1ccccc1-c1ccc2c(c1)CCCc1c-2nc2ccc(F)cc2c1C(=O)O | > 300 °C
N#Cc1cccc2c1CC(=NN)c1ccccc1S2 | 175 to 177 °C
Cc1ccc(C=C2CSCC3=C2N(CC(F)(F)F)NC3c2ccc(C)cc2)cc1 (stereo not drawn) | 168 to 178 °C
COc1ccccc1[C@@]1(O)[C@H](O)CC(c2ccccc2)(c2ccccc2)[C@@H]2CN(C(=O)Cc3ccc(N)cc3)C[C@@H]21 (racemic) | 188 °C
NC(=O)NCCC[C@H](NCC(O)C(O)C(O)C(O)CO)C(=O)O (stereo partly drawn) | 176 °C
CCOC(=O)c1c(NCCc2ccccc2)n[nH]c1C | 138 to 139 °C
O=C(Nc1nc2ccccc2n1CCCN1CCNCC1)c1ccc(C(F)(F)F)cc1 | 184 to 185 °C
NS(=O)(=O)c1cc2cccc(O)c2s1 | 196 to 198 °C
COc1cc(C)c2ccccc2n1 | 181 to 191 °C
O=C1N(Cc2ccc(-c3ccccc3Cl)o2)c2ccccc2C12COc1cc3c(cc12)OCO3 (stereo not drawn) | 148 to 150 °C
COCCc1cccc2oc(C(=O)O)c(C)c12 | 138 to 140 °C
COc1ccc2c(-c3ccc(OC)c(C)c3)noc2c1 | 93 to 95 °C
CCCCNC(=O)[C@@H]1C[C@]2(NC(=O)N(CCCN3CCC(O)CC3)C2=O)c2cc(F)ccc2O1 | 86 to 88 °C
CCOc1nn(Cc2ccc(OCCc3ccc(CC)cn3)cc2)cc1CCC(=O)O | 89 to 90 °C

SMILES | melting point
COc1nc2ccc3c(c2o1)C(CCNC(C)=O)CC3 (stereo not drawn) | 126 to 128 °C
CSC(=CC(=O)C(F)(F)F)NCc1ccc(Cl)nc1 | 112 °C
COC(=O)c1cc(OCC=C(Cl)Cl)cc(Cl)c1OCC=C(Cl)Cl | 63 °C
COCCCn1nnnc1-c1cc(-c2cccc(C)c2)c(O)cc1O | 137 to 140 °C
CCCCCCCCSc1ccc(C#N)c(C#N)c1 | 37 to 38 °C
CS(=O)(=O)c1ccc(Oc2ccc(CC(=O)O)cc2)cc1 | 122 to 125 °C
CSc1c(O[C@H]2CC[C@H](N)CC2)ccc2[nH]ncc12 | 138 to 140 °C
N#CCN1CCN(c2cccc(Cl)c2Cl)CC1 | 89 to 92 °C
COC(=O)CCC(=O)c1ccc(CCNC(C)=O)cc1 | 120 °C
CC(C)N(CCOc1ccc2c(=O)c3ccc(OCCN(C(C)C)C(C)C)cc3oc2c1)C(C)C | 118 °C
COCOc1cc(Cl)ccc1-c1cc(-c2cccc(N(C(=O)OC(C)(C)C)C(=O)[C@@H](N)Cc3c[nH]cn3)c2)c(C#N)c(NC(=O)c2ccco2)n1 | 149 to 150 °C
OC(COc1cccnc1)c1cccc(OCc2ccc3ccccc3n2)c1 (stereo not drawn) | 103 to 104 °C
CCOC(=O)/C=C/c1c(-c2ccccc2)c2c3ccccc3cnn2c1C(C)C | 158 to 159 °C
CNC(=O)CC=C(CC(C)C)C(=O)OC(C)(C)C | 35 to 36 °C
CC(C)c1ccc2c(c1)c(Sc1ccccc1)c(C(C)C(=O)O)n2Cc1ccc(Cl)cc1 (stereo not drawn) | 181 to 182 °C
BrCCCCCCCCn1nnc(-c2ccccc2)c1-c1ccccc1 | 90 to 91 °C
CNc1cn(-c2cncc(F)c2)nc1C1CC1 | 118 to 120 °C
CCCCCC1CCc2c3c(c(F)c(F)c2O1)OC(C)C3 (stereo not drawn) | 76 °C
Nc1ccc(N2C(=O)CCCC2=O)cc1 | 214 to 215 °C
CC(C(N)=O)c1ccc2c(c1)C(=O)Cc1ccccc1O2 (stereo not drawn) | 154 to 155 °C
CCn1ncc2c(NCc3ccccc3)c3ccc(O)cc3nc21 | 252 to 254 °C
CC1=C(Cc2ccc(Cl)cc2)C(=O)C2C=CC=CC2C1=O (stereo not drawn) | 134 to 135 °C
Nc1ccc(C2(C(=O)O)CC2C(=O)O)cc1 (stereo not drawn) | 154 to 155 °C
